{"source": "patent US20260240851A1", "about": "“Treatment of Parkinson's Disease in a Patient Using a Glucocerebrosidase Activator” (BIAL - R&D Investments, S.A., priority 2023, published 2026)", "assay_type_in_all_cases": "in vivo, human", "key": {"[1]": {"experiment": "LTI-291-004: fMRI, FDG-PET and functional outcome measures", "experimental": "This study was a Phase 1B, randomized, double-blind, placebo-controlled, multiple oral dose study of Compound A in 14 subjects (aged 51 to 81 years) with GBA-PD. The objectives of this study were to investigate the safety, tolerability, and PK of multiple once-daily oral administration of Compound A and to explore the accompanying pharmacodynamic changes. Subjects received once-daily oral doses of 10 mg (n=6) or 60 mg (2×30 mg capsules) (n=6) Compound A or placebo (n=2) for 28 consecutive days. PK samples were measured once on Day 7 and Day 14 and 4 times after the last dose on Day 28. Plasma concentrations were summarized at each time point, and no PK parameters were estimated. The PD evaluations included fMRI measures; FDG-PET to determine the metabolic rate of glucose in specific regions of the brain; and functional outcome measures (MDS-UPDRS Part III and the MMSE). GluCer, GluSph, and LacCer and other sphingolipids were measured in PBMCs and plasma as biomarkers of pharmacological effect."}, "[2]": {"experiment": "BIA 28-6156-106: safety and tolerability", "experimental": "This was a Phase 1, single-dose, mass balance recovery study of ^14C-Compound A in 1 cohort of healthy male subjects, aged 30 to 65 years. A total of 6 subjects received a single oral dose of 60 mg Compound A, containing not more than 3.7 MBq ^14C, under fasted conditions. Objectives included determining the routes and rates of elimination of ^14C-Compound A, identifying the structure of metabolites that account for more than 10% of circulating total radioactivity in plasma and total radioactive dose in urine and feces, exploring the PK of Compound A, evaluating the extent of distribution of TR into blood cells, and gathering additional safety and tolerability information for Compound A."}, "[3]": {"experiment": "BIA 28-6156-107 DDI: effect of multiple-dose carbamazepine on single-dose PK of Compound A", "conditions": "for Tmax / half-life: both sexes, human, in vivo, oral; for Tmax: read-out: Median Tmax; for half-life: read-out: geometric mean t1/2 (converted)"}, "[4]": {"experiment": "Phase 2 placebo-controlled study of Compound A in GBA-PD (Example 3)", "source_text": "This study is a Phase 2, randomized, double-blind, placebo-controlled, multiple oral dose study of Compound A in subjects (aged 35 to 80 years, inclusive) with GBA-PD. The subjects have a clinical diagnosis of PD for at least 1 year and for no longer than 7 years before initiation of screening (for Part A), as confirmed by a neurologist using the MDS Criteria for Parkinson's Disease, have a modified Hoehn and Yahr score 2.5, have a score of ≥22 on the Montreal Cognitive Assessment (MoCA), and are receiving symptomatic treatment for PD. […] The objectives of this study are to investigate the efficacy, safety, tolerability, pharmacodynamics and PK of once-daily oral administration of Compound A.\nGenetic screening of the subjects is performed using blood collected (preferably whole blood samples). Subjects are screened by sequencing of the full GBA1 gene, with specifications of any PD risk-associated variants that are identified. Subjects are also screened for the presence or absence of PD risk-associated variants in the LRRK2 (Leucine-rich repeat kinase 2) gene. Subjects who have an LRRK2 pathogenic variant are not eligible for Part B (Double-Blind Treatment) of the study.\nSubjects that have a pathogenic variant in the glucocerebrosidase 1 (GBA1) gene (GBA-PD) (for example, see Appendix 1) and have been on a stable dose of PD medication for at least 30 days (at least 60 days for rasagiline) before commencing treatment are included in the next stage of the trial. In addition, subjects with the following are excluded from further treatment: • The subject has Gaucher's disease (GD), as defined by clinical signs and symptoms (i.e., hepatosplenomegaly, cytopenia, skeletal disease), and/or a medical history of marked deficiency of GCase plasmatic activity (preferably GCase whole blood activity) compatible with GD. • The subject is homozygous for a GBA1 pathogenic variant that is known to be associated with GD or compound heterozygous for 2 alleles that are known to be associated with GD. • The subject carries a known PD-associated LRRK2 pathogenic variant (for example, see Appendix 2). • The subject has atypical or secondary parkinsonism by medical history or in the opinion of the investigator. Atypical parkinsonism includes, but is not limited to, diagnoses of progressive supranuclear palsy, cortico-basal syndrome, and multiple system atrophy. Secondary parkinsonism includes drug-induced, toxin-induced, postinfectious, posttraumatic, or vascular parkinsonism. • The subject is using a strong CYP3A4 modulator at the time of screening for Part B. • The subject is using a breast cancer resistance protein (BCRP) substrate (e.g. pravastatin, rosuvastatin, glyburide) at the time of screening for Part B. • (Optionally) The subject has used any of the following medications within 60 days before Baseline: typical or atypical antipsychotics (including, but not limited to, clozapine, pimavanserin, olanzapine, quetiapine, risperidone, and aripiprazole); metoclopramide; prochlorperazine; methyldopa; tetrabenazine; deutetrabenazine; valbenazine; reserpine; or a prior history or continuation or initiation during the study of ambroxol at doses >120 mg/day.\nSubjects are randomly assigned to three groups who receive i) Compound A 10 mg, once daily, oral administration, ii) Compound A 60 mg, once daily, oral administration, or iii) Placebo, once daily, oral administration. Subjects also receive their usual PD medications throughout the study. Randomization is stratified by major/severe (e.g., heterozygous for N370S, D409H, H255Q, D140H, G202R, L324P, I260T, L444P, A190T, R120W; homozygous for T369M or E326K) or minor/mild (e.g., heterozygous for T369M or E326K) PD risk-associated variant. Alternatively, randomization is stratified by severity as a mild or severe GBA1 variant as described in Parlar, 2023 (also see Appendix 1). […]"}, "[5]": {"conditions": "Compound A + carbamazepine vs Compound A alone"}, "[6]": {"conditions": "60 mg Compound A administered alone"}}, "note": "Where two headings read alike, the source gives them in different places.", "data": [{"smiles": "CCCCCO[C@H]1CC[C@H](NC(=O)c2cnn3c(C)cc(C)nc23)CC1", "note": "[Compound A, 5,7-dimethyl-N-((1S*,4S)-4-(pentyloxy)cyclohexyl)pyrazolo[1,5-a]pyrimidine-3-carboxamide]", "values": [{"measurement": "default mode network (DMN) assessed by fMRI", "setting": "[1]; 10 or 60 mg daily for 28 days, differences not statistically significant", "value": "improved the default mode network"}, {"measurement": "MDS-UPDRS III and MMSE scores", "setting": "[1]; Day 28 vs Day -1, all subjects", "value": "unchanged"}, {"measurement": "vital signs, laboratory safety assessments, ECG parameters", "setting": "[2]; in vivo", "value": "no clinically significant safety observations"}, {"measurement": "relatedness of AEs", "setting": "[2]; investigator assessment", "value": "unrelated to the IMP"}, {"measurement": "deaths, SAEs, severe AEs, discontinuations due to AEs", "setting": "[2]; single 60 mg dose", "value": "No deaths, other SAEs, severe AEs, or discontinuations due to AEs"}, {"measurement": "subjects reporting mild headaches", "setting": "[2]; single 60 mg dose", "value": 33.3, "unit": "%"}, {"measurement": "subjects reporting moderate tinea cruris", "setting": "[2]; single 60 mg dose", "value": 16.7, "unit": "%"}, {"measurement": "subjects reporting AEs", "setting": "[2]; single 60 mg dose, 6 subjects", "value": 50.0, "unit": "%"}, {"measurement": "AUC0-inf ratio of geometric least squares means (point estimate)", "setting": "[3]; [5]", "value": 0.363}, {"measurement": "AUC0-last ratio of geometric least squares means (point estimate)", "setting": "[3]; [5]", "value": 0.367}, {"measurement": "Cmax ratio of geometric least squares means (point estimate)", "setting": "[3]; [5]", "value": 0.877}, {"measurement": "Tmax", "setting": "[3]; [6]", "value": 1, "unit": "h"}, {"measurement": "half-life", "setting": "[3]; [6]", "value": 28, "unit": "h"}, {"measurement": "Tmax", "setting": "[3]; 60 mg Compound A coadministered with carbamazepine", "value": 2, "unit": "h"}, {"measurement": "half-life", "setting": "[3]; Compound A coadministered with carbamazepine", "value": 12, "unit": "h"}, {"measurement": "reduction of AUC0-inf", "setting": "[3]; with carbamazepine vs alone", "value": 64, "unit": "%"}, {"measurement": "reduction of AUC0-last", "setting": "[3]; with carbamazepine vs alone", "value": 63, "unit": "%"}, {"measurement": "reduction of Cmax", "setting": "[3]; with carbamazepine vs alone", "value": "approximately 12%"}, {"measurement": "Mean plasma concentrations, 60 mg vs 10 mg", "setting": "[4]; all measured time points", "value": "higher after the 60 mg dose than after the 10 mg dose"}, {"measurement": "time to worsening (MDS-UPDRS based and other measures)", "setting": "[4]; some subjects, Compound A 10 or 60 mg daily up to 78 weeks vs placebo", "value": "increased time to worsening"}, {"measurement": "Mean change in lysosomal activity", "setting": "[4]; vs placebo", "value": "higher"}, {"measurement": "Mean change in plasma concentrations of neurofilament light chain", "setting": "[4]; vs placebo", "value": "lower"}, {"measurement": "Mean change of cerebral blood flow by arterial spin labeling with MRI", "setting": "[4]; vs placebo", "value": "higher"}, {"measurement": "mean change in the level of GluSph", "setting": "[4]; vs placebo", "value": "higher"}]}]}
